Measurements taken from ChEMBL document CHEMBL4837201, “Increased antibacterial properties of indoline-derived phenolic Mannich bases” (Eur J Med Chem, 2021).
Converted amounts (≈) assume the structure as drawn.

Tests used:
[1] = Antioxidant activity assessed as DPPH radical scavenging activity at 10 ug/ml by DPPH assay relative to control; format: functional; settings: dose 10.0 µg/ml
Enterococcus faecalis [2] = assay: Antibacterial activity against vancomycin-resistant Enterococcus faecalis ATCC 51299 assessed as inhibition of bacterial growth incubated for 16 to 24 hrs by broth microdilution method; format: functional; settings: time 16-24 hrs
[3] = test system: Staphylococcus epidermidis; assay: Antibacterial activity against Staphylococcus epidermidis assessed as inhibition of bacterial growth incubated for 16 to 24 hrs by broth microdilution method; format: functional; settings: time 16-24 hrs
Listeria monocytogenes = assay: Antibacterial activity against Listeria monocytogenes assessed as inhibition of bacterial growth incubated for 16 to 24 hrs by broth microdilution method; format: functional; settings: time 16-24 hrs
[4] = Cytotoxicity against human HaCaT cells assessed as cell viability at 50 uM after 24 hrs by MTT assay; format: cell-based; settings: HaCaT cells, read-out: Activity
Bacillus subtilis = assay: Antibacterial activity against Bacillus subtilis ATCC 6633 assessed as inhibition of bacterial growth incubated for 16 to 24 hrs by broth microdilution method; format: functional; settings: time 16-24 hrs
Enterococcus faecalis [5] = assay: Antibacterial activity against Enterococcus faecalis assessed as inhibition of bacterial growth incubated for 16 to 24 hrs by broth microdilution method; format: functional; settings: time 16-24 hrs
[6] = test system: Staphylococcus epidermidis; assay: Antibacterial activity against Staphylococcus epidermidis ATCC 12228 assessed as inhibition of bacterial growth incubated for 16 to 24 hrs by broth microdilution method; format: functional; settings: time 16-24 hrs
Staphylococcus aureus [7] = assay: Antibacterial activity against Staphylococcus aureus ATCC 6538 assessed as inhibition of bacterial growth incubated for 16 to 24 hrs by broth microdilution method; format: functional; settings: time 16-24 hrs
Enterococcus faecium = assay: Antibacterial activity against Enterococcus faecium assessed as inhibition of bacterial growth incubated for 16 to 24 hrs by broth microdilution method; format: functional; settings: time 16-24 hrs
[8] = Toxicity in Saccharomyces cerevisiae ATCC 2601 assessed as reduction in cell viability measured after 24 hrs by microdilution method
Staphylococcus aureus [9] = assay: Antibacterial activity against methicillin-sensitive Staphylococcus aureus ATCC 25923 assessed as inhibition of bacterial growth incubated for 16 to 24 hrs by broth microdilution method; format: functional; settings: time 16-24 hrs
Staphylococcus aureus [10] = assay: Antibacterial activity against methicillin-resistant Staphylococcus aureus CIP106760 assessed as inhibition of bacterial growth incubated for 16 to 24 hrs by broth microdilution method; format: functional; settings: time 16-24 hrs
Enterococcus faecalis [11] = assay: Antibacterial activity against Enterococcus faecalis ATCC 29212 assessed as inhibition of bacterial growth incubated for 16 to 24 hrs by broth microdilution method; format: functional; settings: time 16-24 hrs
Staphylococcus aureus [12] = assay: Antibacterial activity against Staphylococcus aureus assessed as inhibition of bacterial growth incubated for 16 to 24 hrs by broth microdilution method; format: functional; settings: time 16-24 hrs

`Cc1ccc(C(c2cc([N+](=O)[O-])ccc2O)N2CCc3cc([N+](=O)[O-])ccc32)cc1` (stereo not given) showed an Activity [1] of 8%, an MBC (Enterococcus faecalis [2]) of 154 µM (≈ 62.4 µg/mL) and an MIC (Enterococcus faecalis [2]) of 2.41 µM (≈ 0.977 µg/mL). The MIC [3] was 9.64 µM (≈ 3.91 µg/mL), the MIC (Listeria monocytogenes) was 9.64 µM (≈ 3.91 µg/mL) and the viability at 24 h, 50 µM [4] was 94%. For the same compound, the MBC (Bacillus subtilis) was 37.7 µM (≈ 15.3 µg/mL), the MIC (Bacillus subtilis) was 18.9 µM (≈ 7.66 µg/mL) and the MIC (Enterococcus faecalis [5]) was 19.3 µM (≈ 7.81 µg/mL). It also gave an MBC [6] of 37.7 µM (≈ 15.3 µg/mL), an MIC [6] of 18.9 µM (≈ 7.66 µg/mL) and an MBC (Staphylococcus aureus [7]) of 77.1 µM (≈ 31.3 µg/mL). The MIC (Staphylococcus aureus [7]) was 19.3 µM (≈ 7.82 µg/mL), the MIC (Enterococcus faecium) was 9.64 µM (≈ 3.91 µg/mL) and the IC50 at 24 h ([8]; Saccharomyces cerevisiae, Saccharomyces cerevisiae ATCC 2601 cells) was > 100 µM. It also gave an MBC (Staphylococcus aureus [9]) of 38.6 µM (≈ 15.6 µg/mL), an MIC (Staphylococcus aureus [9]) of 1.2 µM (≈ 0.486 µg/mL) and an MBC (Staphylococcus aureus [10]) of 4.82 µM (≈ 1.95 µg/mL). It also gave an MIC (Staphylococcus aureus [10]) of 1.2 µM (≈ 0.486 µg/mL), an MBC (Enterococcus faecalis [11]) of 9.64 µM (≈ 3.91 µg/mL) and an MIC (Enterococcus faecalis [11]) of 1.2 µM (≈ 0.486 µg/mL). The MIC (Staphylococcus aureus [12]) was 9.64 µM (≈ 3.91 µg/mL).

In the case of `Cc1ccc(C(c2cc([N+](=O)[O-])ccc2O)N2CCc3cc(Cl)ccc32)cc1` (stereo not given), the Activity [1] is reported as > 80%, the MBC (Enterococcus faecalis [2]) is reported as 9.19 µM (≈ 3.63 µg/mL) and the MIC (Enterococcus faecalis [2]) is reported as 2.3 µM (≈ 0.908 µg/mL). The MBC (Bacillus subtilis) was 151 µM (≈ 59.6 µg/mL), the MIC (Bacillus subtilis) was 37.7 µM (≈ 14.9 µg/mL) and the MBC [6] was 37.7 µM (≈ 14.9 µg/mL). For the same compound, the MIC [6] was 75.4 µM (≈ 29.8 µg/mL), the MBC (Staphylococcus aureus [7]) was < 158 µM and the MIC (Staphylococcus aureus [7]) was 19.8 µM (≈ 7.82 µg/mL). For the same compound, the MBC (Staphylococcus aureus [9]) was 36.8 µM (≈ 14.5 µg/mL), the MIC (Staphylococcus aureus [9]) was 2.3 µM (≈ 0.908 µg/mL) and the MBC (Staphylococcus aureus [10]) was 4.59 µM (≈ 1.81 µg/mL). It also gave an MIC (Staphylococcus aureus [10]) of 1.15 µM (≈ 0.454 µg/mL), an MBC (Enterococcus faecalis [11]) of 9.19 µM (≈ 3.63 µg/mL) and an MIC (Enterococcus faecalis [11]) of 1.15 µM (≈ 0.454 µg/mL).

Work on NYSTATIN yielded an IC50 [8] of 3.31 µM.

For `CN[C@H](CC(C)C)C(=O)N[C@H]1C(=O)N[C@@H](CC(N)=O)C(=O)N[C@H]2C(=O)N[C@H]3C(=O)N[C@H](C(=O)N[C@H](C(=O)O)c4cc(O)cc(O)c4-c4cc3ccc4O)[C@H](O)c3ccc(c(Cl)c3)Oc3cc2cc(c3O[C@@H]2O[C@H](CO)[C@@H](O)[C@H](O)[C@H]2O[C@H]2C[C@](C)(N)[C@H](O)[C@H](C)O2)Oc2ccc(cc2Cl)[C@H]1O` [VANCOMYCIN], the MIC (Enterococcus faecalis [2]) was < 5.83 µM, the MIC (Bacillus subtilis) was 1.95 µM (≈ 2.83 µg/mL) and the MIC [6] was 1.95 µM (≈ 2.83 µg/mL). For the same compound, the MIC (Staphylococcus aureus [7]) was 1.35 µM (≈ 1.96 µg/mL), the MIC (Staphylococcus aureus [9]) was 5.4 µM (≈ 7.83 µg/mL) and the MIC (Staphylococcus aureus [10]) was < 1.5 µM. It also gave an MIC (Enterococcus faecalis [11]) of 3.07 µM (≈ 4.45 µg/mL).
